Data taken from US20250326748A1, “COMPOUNDS AND METHODS FOR MODULATING SPLICING” (REMIX THERAPEUTICS INC., priority 2022, published 2025).
Where two headings read alike, the source gives them in different places.

How the values were obtained:
SMN2 mRNA = experiment: Splicing RT-qPCR panel, SMN2 canonical junction (CJ) mRNA; format: cell-based, human; conditions: read-out: SMN2 CJ (decrease in CJ mRNA levels, IC50)
Procedure, shortened: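 A673 cells (DMEM, 10% FBS) or K562 cells (IMDM, 10% FBS) treated 24 h at 37 °C with an 11-point 3-fold dilution, top 10 uM, DMSO ≤0.25%. Canonical-junction mRNA quantified in lysates by RT-qPCR, normalised to GAPDH, GUSB or PPIA and to DMSO (2^−ΔΔCt), then converted to % response.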

MYB mRNA = experiment: Splicing RT-qPCR assay, MYB canonical (CJ) and alternative (AJ) junction mRNA; format: cell-based, human; conditions: for IC50: canonical junction mRNA; for AC50: alternative junction mRNA, read-out: MYB AJ (AC50, increase in AJ mRNA)
Procedure, shortened: (§1)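 Read-out: one-step RT-qPCR on crude lysates measuring exon-exon junction isoforms, CJ for the canonical transcript and AJ for compound-induced exon inclusion. Normalization used PPIA for adherent A673 and GAPDH or GUSB for K562. Cells received 11 doses, 3-fold apart, top 10 uM, for 24 h.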

HTT mRNA = experiment: Splicing RT-qPCR assay, HTT canonical (CJ) and alternative (AJ) junction mRNA; format: cell-based, human; conditions: for IC50: canonical junction mRNA; for AC50: alternative junction mRNA, read-out: HTT AJ (AC50, increase in AJ mRNA)
Procedure, shortened: as §1

K562 cells = experiment: Cell viability, Cell Titer Glo 2.0 assay, K562; conditions: 72 hours
[1] = Homo sapiens, qPCR panel, read-out: MYB CJ (decrease in CJ mRNA levels, IC50)
[2] = Homo sapiens, RT-qPCR, A673 or K562 cells, 24 hours treatment
[3] = Homo sapiens, RT-qPCR, A673 or K562 cells, 24 hours treatment, read-out: MYB CJ (IC50, decrease in CJ mRNA)
[4] = Homo sapiens, 24 h, RT-qPCR, A673 or K562 cells, 24 hours treatment, read-out: HTT CJ (IC50, decrease in CJ mRNA)
[5] = Homo sapiens, qPCR panel, read-out: HTT CJ (decrease in CJ mRNA levels, IC50)
[6] = RT-qPCR, A673 or K562 cells, 24 hours treatment

SMILES	IC50 (SMN2 mRNA; Homo sapiens)	IC50 (MYB mRNA; [1])	IC50 (MYB mRNA; [3])	IC50 (HTT mRNA; [4])	IC50 (HTT mRNA; [5])	IC50 (SMN2 mRNA)	IC50 (MYB mRNA; RT-qPCR, A673 or K562 cells, 24 hours treatment, read-out: MYB CJ (IC50, decrease in CJ mRNA))	IC50 (MYB mRNA; qPCR panel, read-out: MYB CJ (decrease in CJ mRNA levels, IC50))	IC50 (HTT mRNA; RT-qPCR, A673 or K562 cells, 24 hours treatment, read-out: HTT CJ (IC50, decrease in CJ mRNA))	IC50 (HTT mRNA; qPCR panel, read-out: HTT CJ (decrease in CJ mRNA levels, IC50))	AC50 (MYB mRNA; [2])	AC50 (HTT mRNA; [2])	Effect on Cell Viability, K562 (K562 cells)	AC50 (MYB mRNA; [6])	AC50 (HTT mRNA; [6])
Cc1nc2c(C)c(O)c(-c3cnc4cc(N5CCC(NC6CC6)C5)ccc4n3)cc2o1 (stereo not drawn) [Compound 182, 6-[6-[3-(cyclopropylamino)pyrrolidin-1-yl]quinoxalin-2-yl]-2,4-dimethyl-1,3-benzoxazol-5-ol]	< 100 nM	< 100 nM	< 100 nM	< 100 nM	< 100 nM	–	–	–	–	–	< 100 nM	< 100 nM	A (<100 nM)	–	–
CNC1CCN(c2cnc3nc(-c4cc5cn(C)nc5c(C)c4O)ccc3n2)C1 (stereo not drawn) [Compound 192, 2,7-dimethyl-5-{2-[3-(methylamino)337pyrrolidine-1-yl]pyrido[2,3-b]pyrazin-6-yl}indazol-6-ol]	< 100 nM	100 to 1000 nM	100 to 1000 nM	100 to 1000 nM	100 to 1000 nM	–	–	–	–	–	100 to 1000 nM	100 to 1000 nM	B (100-1000 nM)	–	–
Cc1c(O)c(-c2ccc3nc(N4C[C@@H](C)N[C@@H](C)C4)cnc3n2)cc2cn(C)nc12 [Compound 195, 5-{2-[(3R,5S)-3,5-dimethylpiperazin-1-yl]pyrido[2,3-b]pyrazin-6-yl}-2,7-dimethylindazol-6-ol]	< 100 nM	100 to 1000 nM	100 to 1000 nM	1000 to 10000 nM	1000 to 10000 nM	–	–	–	–	–	100 to 1000 nM	> 10000 nM	B (100-1000 nM)	–	–
Cc1c(O)c(-c2ccc3nc(N4CCNCC4)cnc3n2)cc2cn(C)nc12 [Compound 197, 2,7-dimethyl-5-[2-(piperazin-1-yl)pyrido[2,3-b]pyrazin-6-yl]indazol-6-ol]	< 100 nM	100 to 1000 nM	100 to 1000 nM	100 to 1000 nM	100 to 1000 nM	–	–	–	–	–	100 to 1000 nM	100 to 1000 nM	B (100-1000 nM)	–	–
Cc1c(O)c(-c2ccc3nc(N4CCC(N(C)C)CC4)cnc3n2)cc2cn(C)nc12 [Compound 198]	< 100 nM	< 100 nM	100 to 1000 nM	1000 to 10000 nM	< 100 nM	–	–	–	–	–	100 to 1000 nM	> 10000 nM	B (100-1000 nM)	–	–
Cc1cn2cc(-c3cnc4nc(C5CCNCC5)ccc4c3)cc(C)c2n1 [Compound 201]	< 100 nM	< 100 nM	> 10000 nM	> 10000 nM	< 100 nM	–	–	–	–	–	> 10000 nM	> 10000 nM	C (1000-9999 nM)	–	–
CN[C@@H]1CCN(c2cnc3nc(-c4cc(F)c5nc(C)cn5c4)ncc3c2)C1 [Compound 202, (3R)-1-(2-{8-fluoro-2-methylimidazo[1,2-a]pyridin-6-yl}pyrido[2,3-d]pyrimidin-6-yl)-N-methylpyrrolidin-3-amine]	< 100 nM	< 100 nM	< 100 nM	100 to 1000 nM	100 to 1000 nM	–	–	–	–	–	100 to 1000 nM	100 to 1000 nM	B (100-1000 nM)	–	–
CC1CN(c2cnc3nc(-c4cc(F)c5nn(C)cc5c4)cc(Cl)c3c2)CCN1 (stereo not drawn) [Compound 203, 4-chloro-2-(7-fluoro-2-methyl-2H-indazol-5-yl)-6-(3-methylpiperazin-1-yl)-1,8-naphthyridine 2,2,2-trifluoroacetate]	< 100 nM	100 to 1000 nM	100 to 1000 nM	100 to 1000 nM	100 to 1000 nM	–	–	–	–	–	< 100 nM	1000 to 10000 nM	B (100-1000 nM)	–	–
Cc1c(O)c(-c2cc(Cl)c3cc(N(C)C4CCNC4)cnc3n2)cc2cn(C)nc12 (stereo not drawn) [Compound 204, 5-[4-chloro-6-(367pyrrolidine-3-ylamino)-1,8-naphthyridin-2-yl]-2,7-dimethylindazol-6-ol]	< 100 nM	100 to 1000 nM	100 to 1000 nM	1000 to 10000 nM	1000 to 10000 nM	–	–	–	–	–	100 to 1000 nM	1000 to 10000 nM	B (100-1000 nM)	–	–

Second part, led by results:

IC50 (SMN2 mRNA; Homo sapiens)	IC50 (MYB mRNA; [1])	IC50 (MYB mRNA; [3])	IC50 (HTT mRNA; [4])	IC50 (HTT mRNA; [5])	IC50 (SMN2 mRNA)	IC50 (MYB mRNA; RT-qPCR, A673 or K562 cells, 24 hours treatment, read-out: MYB CJ (IC50, decrease in CJ mRNA))	IC50 (MYB mRNA; qPCR panel, read-out: MYB CJ (decrease in CJ mRNA levels, IC50))	IC50 (HTT mRNA; RT-qPCR, A673 or K562 cells, 24 hours treatment, read-out: HTT CJ (IC50, decrease in CJ mRNA))	IC50 (HTT mRNA; qPCR panel, read-out: HTT CJ (decrease in CJ mRNA levels, IC50))	SMILES	AC50 (MYB mRNA; [2])	AC50 (HTT mRNA; [2])	Effect on Cell Viability, K562 (K562 cells)	AC50 (MYB mRNA; [6])	AC50 (HTT mRNA; [6])
< 100 nM	< 100 nM	< 100 nM	< 100 nM	< 100 nM	–	–	–	–	–	C[C@@H]1CN(c2cnc3nc(-c4cc5cn(C)nc5c(F)c4O)ccc3c2)C[C@H](C)N1 [Compound 206]	< 100 nM	100 to 1000 nM	A (<100 nM)	–	–
–	–	–	–	–	< 100 nM	< 100 nM	< 100 nM	< 100 nM	< 100 nM	Cc1c(O)c(-c2cc(Cl)c3cc(N4C[C@@H](C)N[C@@H](C)C4)cnc3n2)cc2cn(C)nc12 [Compound 207, 5-{4-chloro-6-[(3R,5S)-3,5-dimethylpiperazin-1-yl]-1,8-naphthyridin-2-yl}-2,7-dimethylindazol-6-ol]	–	–	A (<100 nM)	< 100 nM	100 to 1000 nM
< 100 nM	< 100 nM	< 100 nM	1000 to 10000 nM	1000 to 10000 nM	–	–	–	–	–	C[C@@H]1CN(c2cnc3nc(-c4cc5cn(C)nc5cc4O)cc(Cl)c3c2)C[C@H](C)N1 [Compound 208]	< 100 nM	1000 to 10000 nM	B (100-1000 nM)	–	–
< 100 nM	100 to 1000 nM	100 to 1000 nM	1000 to 10000 nM	1000 to 10000 nM	–	–	–	–	–	Cn1cc2cc(-c3cc(Cl)c4cc(N5CCNC(C6CC6)C5)cnc4n3)cc(F)c2n1 (stereo not drawn) [Compound 209, 4-chloro-6-(3-cyclopropylpiperazin-1-yl)-2-(7-fluoro-2-methylindazol-5-yl)-1,8-naphthyridine]	100 to 1000 nM	1000 to 10000 nM	B (100-1000 nM)	–	–
100 to 1000 nM	1000 to 10000 nM	1000 to 10000 nM	1000 to 10000 nM	1000 to 10000 nM	–	–	–	–	–	Cc1cn2nc(-c3ccc4cc(NC5CCNCC5)cnc4n3)cc(C)c2n1 [Compound 210, 7-{2,8-dimethylimidazo[1,2-b]pyridazin-6-yl}-N-(piperidin-4-yl)-1,8-naphthyridin-3-amine; trifluoroacetic acid]	1000 to 10000 nM	1000 to 10000 nM	C (1000-9999 nM)	–	–
< 100 nM	< 100 nM	< 100 nM	< 100 nM	< 100 nM	–	–	–	–	–	CN[C@@H]1CCN(c2cnc3nc(-c4cc5cn(C)nc5c(C)c4O)nc(OC)c3c2)C1 [Compound 211, 5-{4-methoxy-6-[(3R)-3-(methylamino)pyrrolidin-1-yl]pyrido[2,3-d]pyrimidin-2-yl}-2,7-dimethylindazol-6-ol]	< 100 nM	< 100 nM	A (<100 nM)	–	–
< 100 nM	< 100 nM	< 100 nM	< 100 nM	< 100 nM	–	–	–	–	–	CN[C@H]1CCN(c2cnc3nc(-c4cc5cn(C)nc5c(C)c4O)nc(OC)c3c2)C1 [Compound 212, 5-{4-methoxy-6-[(3S)-3-(methylamino)pyrrolidin-1-yl]pyrido[2,3-d]pyrimidin-2-yl}-2,7-dimethylindazol-6-ol]	< 100 nM	100 to 1000 nM	A (<100 nM)	–	–
< 100 nM	< 100 nM	< 100 nM	100 to 1000 nM	100 to 1000 nM	–	–	–	–	–	CNC1CCN(c2cnc3nc(-c4cc5cn(C)nc5cc4O)cc(Cl)c3c2)C1 (stereo not drawn) [Compound 213, 5-{4-chloro-6-[3-(methylamino)370pyrrolidine-1-yl]-1,8-naphthyridin-2-yl}-2-methylindazol-6-ol]	< 100 nM	100 to 1000 nM	B (100-1000 nM)	–	–
< 100 nM	100 to 1000 nM	100 to 1000 nM	100 to 1000 nM	100 to 1000 nM	–	–	–	–	–	Cc1c(O)c(-c2ncc3cc(N4C[C@@H](C)N[C@@H](C)C4)cnc3n2)cc2cn(C)nc12 [Compound 214]	100 to 1000 nM	1000 to 10000 nM	B (100-1000 nM)	–	–
